Assay results published in ChEMBL document CHEMBL5113510, “Protein Lysine Methyltransferase SMYD2: A Promising Small Molecule Target for Cancer Therapy” (J Med Chem, 2022).
pIC50: −log10 of the molar value.

Tests used:
[1] = biological target: T1, N-lysine methyltransferase SMYD2 (Homo sapiens, UniProt Q9NRG4); experiment: Inhibition of FLAG-tagged SMYD2 (unknown origin) expressed in human U2OS cells mediated intracellular p53 methylation incubated for 24 hrs using p53 as substrate by immunofluorescence analysis; type: cell-based
KYSE-150 cell line = experiment: Antitumor activity against human KYSE-150 cells assessed as inhibition of cell proliferation incubated for 3 to 7 days by CellTiter-Glo assay; type: functional, cell-based
KYSE-270 = experiment: Antitumor activity against human KYSE-270 cells assessed as inhibition of cell proliferation incubated for 3 to 7 days by CellTiter-Glo assay; type: functional, cell-based
[2] = Antitumor activity against human HCC cells assessed as inhibition of cell proliferation incubated for 3 to 7 days by CellTiter-Glo assay; type: functional, cell-based
[3] = Antitumor activity against human BC cells assessed as inhibition of cell proliferation incubated for 3 to 7 days by CellTiter-Glo assay; type: functional, cell-based
[4] = biological target: T1, N-lysine methyltransferase SMYD2; experiment: Inhibition of human SMYD2 overexpressing human KYSE-150 cells assessed as SMYD2 assessed as reduction in BTF3 monomethylation by Western blot analysis; type: cell-based, KYSE-150 cell line

T1 sequence (Q9NRG4 whole entry): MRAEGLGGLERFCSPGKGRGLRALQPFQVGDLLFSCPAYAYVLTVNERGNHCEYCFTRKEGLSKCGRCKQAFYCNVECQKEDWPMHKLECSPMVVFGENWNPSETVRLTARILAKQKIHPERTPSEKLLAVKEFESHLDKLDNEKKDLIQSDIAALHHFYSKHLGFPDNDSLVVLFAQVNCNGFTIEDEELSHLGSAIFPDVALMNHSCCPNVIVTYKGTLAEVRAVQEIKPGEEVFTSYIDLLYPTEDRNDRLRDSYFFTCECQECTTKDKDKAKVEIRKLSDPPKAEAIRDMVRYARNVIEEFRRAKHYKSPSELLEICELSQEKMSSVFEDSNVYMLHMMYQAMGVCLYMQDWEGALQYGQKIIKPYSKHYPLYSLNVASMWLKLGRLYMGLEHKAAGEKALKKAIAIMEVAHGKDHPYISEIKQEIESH

SMILES: O=C1COc2c(CCNCCN(C(=O)CCNCCc3ccc(Cl)c(Cl)c3)C3CCCCC3)ccc(O)c2N1
- pIC50 [1]: > 4.00

SMILES: Cc1cn(CCN2CCN(c3ccccc3-c3cc(C#N)cc(C(=O)NCCCN4CCCC4)c3)CC2)c2ccccc12
- pIC50 (KYSE-150 cell line): 5.82
- pIC50 (KYSE-270): 5.82
- pIC50 [2]: 5.82
- pIC50 [3]: 5.82

SMILES: O=C(NC1CN(Cc2cnn(Cc3ccc(Cl)cc3)c2)C1)c1cn(C2CC2)nn1
- pIC50 [4]: 8.54
